This note sets out measurements from US9346798B2, “Dihydrobenzoxazine and tetrahydroquinoxaline sodium channel inhibitors” (AMGEN INC., priority 2012, dated 2016).

Type in all cases: cell-based
Series [1] deals with T1, Nav 1.7 (Homo sapiens (Human), UniProt Q15858). Briefly: Nav 1.7 in vitro assay, IonWorks Quattro (IWQ) population patch-clamp. Particulars: HEK 293 cells stably transfected with Nav 1.7; 26th pulse to -20 mV.
In series [2] the target is T1, Nav 1.7. Briefly: Nav 1.7 in vitro PX assay, PatchXpress whole cell voltage clamp. Particulars: HEK 293 cells stably transfected with human Nav1.7; partially inactivated state (20 to 50% inactivation). The method in brief:
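Partially inactivated channels (20–50% inactivation at holding potential) were probed on automated patch clamp in stably transfected HEK293 cells, stepping to −10 mV for 20 msec every 10 s (0.1 Hz).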

In a further series the target is Nav 1.5 (Homo sapiens (Human), UniProt Q14524). Briefly: Nav 1.5 in vitro assay, IonWorks Quattro (IWQ) population patch-clamp. Particulars: HEK 293 cells stably transfected with Nav 1.5; 26th pulse to -20 mV.
Nav 1.5, sequence (Q14524 whole entry): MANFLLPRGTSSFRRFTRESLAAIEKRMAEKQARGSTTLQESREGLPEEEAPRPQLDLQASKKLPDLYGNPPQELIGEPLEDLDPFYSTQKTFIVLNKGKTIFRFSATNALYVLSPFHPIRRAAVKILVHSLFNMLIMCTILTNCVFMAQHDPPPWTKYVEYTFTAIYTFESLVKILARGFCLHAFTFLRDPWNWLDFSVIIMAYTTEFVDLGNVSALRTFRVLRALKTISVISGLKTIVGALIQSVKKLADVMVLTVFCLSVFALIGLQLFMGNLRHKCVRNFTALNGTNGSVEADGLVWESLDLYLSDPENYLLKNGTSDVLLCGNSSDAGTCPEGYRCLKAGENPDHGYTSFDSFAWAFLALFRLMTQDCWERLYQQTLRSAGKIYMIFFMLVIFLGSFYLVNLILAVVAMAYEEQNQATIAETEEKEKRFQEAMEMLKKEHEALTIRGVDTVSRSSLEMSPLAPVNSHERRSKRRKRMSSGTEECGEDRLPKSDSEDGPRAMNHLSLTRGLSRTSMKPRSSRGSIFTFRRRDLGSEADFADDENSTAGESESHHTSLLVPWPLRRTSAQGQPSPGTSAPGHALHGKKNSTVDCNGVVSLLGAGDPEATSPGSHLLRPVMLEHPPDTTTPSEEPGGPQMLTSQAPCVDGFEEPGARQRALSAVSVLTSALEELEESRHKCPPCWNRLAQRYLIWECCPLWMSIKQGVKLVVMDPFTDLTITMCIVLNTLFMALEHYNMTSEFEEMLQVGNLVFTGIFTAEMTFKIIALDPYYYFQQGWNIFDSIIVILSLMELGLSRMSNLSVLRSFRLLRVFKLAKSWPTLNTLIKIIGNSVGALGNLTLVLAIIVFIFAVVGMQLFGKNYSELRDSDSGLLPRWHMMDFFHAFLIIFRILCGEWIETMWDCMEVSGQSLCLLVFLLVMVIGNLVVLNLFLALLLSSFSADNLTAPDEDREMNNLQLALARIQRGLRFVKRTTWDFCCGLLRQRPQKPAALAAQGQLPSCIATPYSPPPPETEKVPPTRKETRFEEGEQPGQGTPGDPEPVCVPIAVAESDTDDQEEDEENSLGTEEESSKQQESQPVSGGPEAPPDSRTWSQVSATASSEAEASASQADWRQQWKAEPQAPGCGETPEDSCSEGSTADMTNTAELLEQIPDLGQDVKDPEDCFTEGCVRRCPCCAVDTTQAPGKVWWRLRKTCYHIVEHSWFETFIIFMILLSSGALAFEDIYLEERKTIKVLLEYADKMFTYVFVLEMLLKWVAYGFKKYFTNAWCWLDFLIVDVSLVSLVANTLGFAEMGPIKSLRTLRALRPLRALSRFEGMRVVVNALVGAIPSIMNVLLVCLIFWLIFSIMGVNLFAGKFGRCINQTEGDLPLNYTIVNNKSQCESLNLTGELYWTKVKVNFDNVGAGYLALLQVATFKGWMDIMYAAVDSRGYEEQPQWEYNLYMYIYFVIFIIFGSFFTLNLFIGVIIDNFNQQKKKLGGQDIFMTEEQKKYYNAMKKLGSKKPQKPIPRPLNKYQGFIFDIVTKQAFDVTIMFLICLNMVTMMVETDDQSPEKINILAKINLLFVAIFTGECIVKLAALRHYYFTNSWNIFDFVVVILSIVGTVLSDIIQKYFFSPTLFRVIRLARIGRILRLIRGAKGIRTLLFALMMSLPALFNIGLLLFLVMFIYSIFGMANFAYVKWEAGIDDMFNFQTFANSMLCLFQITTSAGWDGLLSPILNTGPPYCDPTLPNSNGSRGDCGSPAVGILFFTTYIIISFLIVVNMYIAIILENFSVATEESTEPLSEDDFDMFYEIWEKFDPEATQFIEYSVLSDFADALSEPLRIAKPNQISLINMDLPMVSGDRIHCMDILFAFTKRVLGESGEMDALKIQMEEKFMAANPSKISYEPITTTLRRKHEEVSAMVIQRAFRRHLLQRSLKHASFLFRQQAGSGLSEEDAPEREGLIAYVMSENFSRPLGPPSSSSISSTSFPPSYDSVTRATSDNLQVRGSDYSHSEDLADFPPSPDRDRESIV

The term IC50 denotes the concentration that gives 50% inhibition. Lower therefore signals higher potency.

T1 sequence (Q15858 whole entry): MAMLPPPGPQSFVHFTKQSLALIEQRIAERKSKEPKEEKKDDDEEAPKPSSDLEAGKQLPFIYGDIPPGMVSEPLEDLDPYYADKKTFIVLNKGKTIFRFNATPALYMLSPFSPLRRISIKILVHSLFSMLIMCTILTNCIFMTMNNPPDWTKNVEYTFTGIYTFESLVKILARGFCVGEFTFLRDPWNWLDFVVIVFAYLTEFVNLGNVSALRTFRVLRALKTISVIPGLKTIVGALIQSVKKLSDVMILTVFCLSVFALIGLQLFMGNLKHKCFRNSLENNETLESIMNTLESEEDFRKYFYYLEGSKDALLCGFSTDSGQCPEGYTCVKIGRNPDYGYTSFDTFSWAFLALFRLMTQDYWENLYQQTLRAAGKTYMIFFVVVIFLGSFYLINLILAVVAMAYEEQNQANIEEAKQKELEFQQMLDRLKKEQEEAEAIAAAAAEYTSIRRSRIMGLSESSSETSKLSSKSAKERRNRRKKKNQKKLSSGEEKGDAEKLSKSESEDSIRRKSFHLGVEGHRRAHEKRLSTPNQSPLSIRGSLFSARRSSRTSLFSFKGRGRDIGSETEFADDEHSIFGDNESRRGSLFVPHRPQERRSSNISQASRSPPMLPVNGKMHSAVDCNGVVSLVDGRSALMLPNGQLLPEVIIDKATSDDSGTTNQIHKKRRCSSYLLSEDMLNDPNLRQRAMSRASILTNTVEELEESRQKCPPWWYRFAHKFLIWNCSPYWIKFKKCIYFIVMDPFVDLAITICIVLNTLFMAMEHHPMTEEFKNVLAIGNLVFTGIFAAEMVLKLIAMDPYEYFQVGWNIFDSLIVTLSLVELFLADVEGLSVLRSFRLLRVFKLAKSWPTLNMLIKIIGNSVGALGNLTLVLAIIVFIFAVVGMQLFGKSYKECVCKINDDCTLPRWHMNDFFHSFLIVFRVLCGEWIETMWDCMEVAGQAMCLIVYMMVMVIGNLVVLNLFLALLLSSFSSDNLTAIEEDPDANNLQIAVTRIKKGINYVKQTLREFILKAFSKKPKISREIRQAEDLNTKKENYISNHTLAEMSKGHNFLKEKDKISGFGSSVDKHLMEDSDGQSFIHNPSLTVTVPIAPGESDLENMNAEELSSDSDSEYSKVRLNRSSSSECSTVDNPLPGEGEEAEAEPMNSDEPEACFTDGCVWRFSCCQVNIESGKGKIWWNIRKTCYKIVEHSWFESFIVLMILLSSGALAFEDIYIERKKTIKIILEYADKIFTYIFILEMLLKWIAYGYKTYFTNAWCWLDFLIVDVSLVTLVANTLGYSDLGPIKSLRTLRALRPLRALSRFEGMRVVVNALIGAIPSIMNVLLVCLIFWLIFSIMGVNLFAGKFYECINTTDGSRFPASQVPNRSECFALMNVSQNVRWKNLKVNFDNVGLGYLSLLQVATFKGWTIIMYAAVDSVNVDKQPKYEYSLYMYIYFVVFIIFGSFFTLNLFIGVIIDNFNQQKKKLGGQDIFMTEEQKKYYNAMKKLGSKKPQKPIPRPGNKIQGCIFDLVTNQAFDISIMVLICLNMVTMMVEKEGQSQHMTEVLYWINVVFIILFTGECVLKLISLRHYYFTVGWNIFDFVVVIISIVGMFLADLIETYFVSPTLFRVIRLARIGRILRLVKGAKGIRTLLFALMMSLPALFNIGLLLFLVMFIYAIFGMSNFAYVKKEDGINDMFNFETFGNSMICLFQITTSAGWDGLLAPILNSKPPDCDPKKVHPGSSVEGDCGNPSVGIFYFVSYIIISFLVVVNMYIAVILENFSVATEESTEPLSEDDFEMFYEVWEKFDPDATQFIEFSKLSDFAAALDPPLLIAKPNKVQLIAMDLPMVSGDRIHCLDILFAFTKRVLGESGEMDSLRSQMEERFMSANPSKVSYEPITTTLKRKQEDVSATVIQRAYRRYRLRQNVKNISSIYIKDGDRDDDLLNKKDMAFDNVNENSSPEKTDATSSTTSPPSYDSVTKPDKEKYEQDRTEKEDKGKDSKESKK

With `COc1cnccc1N1CCOc2cc(S(=O)(=O)Nc3nccs3)ccc21` [Example 158, 4-(3-methoxypyridin-4-yl)-N-(thiazol-2-yl)-3,4-dihydro-2H-benzo[b][1,4]oxazine-7-sulfonamide], the IC50 is 1.49 µM against Nav 1.7 [1], 4.51 µM against Nav 1.7 [2] and greater than 10 µM against Nav 1.5.

Take `N#Cc1cccc(F)c1N1CCOc2cc(S(=O)(=O)Nc3nccs3)ccc21` [Example 159, 4-(2-Cyano-6-Fluorophenyl)-N-(Thiazol-2-Yl)-3,4-Dihydro-2H-Benzo[B][1,4]Oxazine-7-Sulfonamide]: the IC50 was 1.42 µM against Nav 1.7 [1], 8.15 µM against Nav 1.7 [2] and greater than 10 µM against Nav 1.5.

For the compound `O=S(=O)(Nc1nccs1)c1ccc2c(c1)OCCN2c1ccccc1` [Example 165, 4-phenyl-N-(thiazol-2-yl)-3,4-dihydro-2H-benzo[b][1,4]oxazine-7-sulfonamide], the IC50 on Nav 1.7 [1] was 0.7 µM; against Nav 1.7 [2] it was 3.75 µM; against Nav 1.5 it was greater than 10 µM.

As to `O=S(=O)(Nc1nccs1)c1ccc2c(c1)OCCN2c1cccc2cccnc12` [Example 166, 4-(Quinolin-8-Yl)-N-(Thiazol-2-Yl)-3,4-Dihydro-2H-Benzo[B][1,4]Oxazine-7-Sulfonamide 2,2,2-Trifluoroacetate], the IC50 is 0.683 µM at Nav 1.7 [1], 11.1 µM at Nav 1.7 [2] and greater than 10 µM against Nav 1.5.

`N#Cc1ccc(N2CCOc3cc(S(=O)(=O)Nc4nccs4)ccc32)cc1OC(F)(F)F` [Example 167, 4-(4-cyano-3-(trifluoromethoxy)phenyl)-N-(thiazol-2-yl)-3,4-dihydro-2H-benzo[b][1,4]oxazine-7-sulfonamide]: the IC50 against Nav 1.7 [1] is 0.652 µM; against Nav 1.7 [2], 6.15 µM; against Nav 1.5, greater than 10 µM.

As to `Cc1ccc(C(C)C)c(N2CCOc3cc(S(=O)(=O)Nc4nccs4)ccc32)c1` [Example 168, 4-(2-Isopropyl-5-Methylphenyl)-N-(Thiazol-2-Yl)-3,4-Dihydro-2H-Benzo[B][1,4]Oxazine-7-Sulfonamide 2,2,2-Trifluoroacetate], the IC50 on Nav 1.7 [1] was 0.643 µM; against Nav 1.7 [2] it was 3.25 µM; at Nav 1.5 it was greater than 10 µM.

For the compound `O=S(=O)(Nc1nccs1)c1ccc2c(c1)OCCN2c1ccc(Cl)cc1F` [Example 170, 4-(4-Chloro-2-Fluorophenyl)-N-(Thiazol-2-Yl)-3,4-Dihydro-2H-Benzo[B][1,4]Oxazine-7-Sulfonamide 2,2,2-Trifluoroacetate], the IC50 against Nav 1.7 [1] is 0.401 µM; against Nav 1.7 [2], 2.62 µM; at Nav 1.5, greater than 10 µM.

Turning to `O=S(=O)(Nc1nccs1)c1ccc2c(c1)OCCN2c1cccc(OC(F)F)c1` [Example 172, 4-(3-(Difluoromethoxy)Phenyl)-N-(Thiazol-2-Yl)-3,4-Dihydro-2H-Benzo[B][1,4]Oxazine-7-Sulfonamide 2,2,2-Trifluoroacetate], the IC50 was 0.244 µM against Nav 1.7 [1], 0.936 µM against Nav 1.7 [2] and greater than 10 µM at Nav 1.5.

On to `O=S(=O)(Nc1nccs1)c1ccc2c(c1)OCCN2c1cccc(C(F)(F)F)c1` [Example 173, N-(Thiazol-2-Yl)-4-(3-(Trifluoromethyl)Phenyl)-3,4-Dihydro-2H-Benzo[B][1,4]Oxazine-7-Sulfonamide 2,2,2-Trifluoroacetate], for which the IC50 at Nav 1.7 [1] is 0.236 µM; against Nav 1.7 [2], 1.65 µM; at Nav 1.5, greater than 10 µM.

As to `N#CCc1cccc(N2CCOc3cc(S(=O)(=O)Nc4nccs4)ccc32)c1` [Example 174, 4-(3-(Cyanomethyl)Phenyl)-N-(Thiazol-2-Yl)-3,4-Dihydro-2H-Benzo[B][1,4]Oxazine-7-Sulfonamide 2,2,2-Trifluoroacetate], the IC50 against Nav 1.7 [1] was found to be 0.211 µM; at Nav 1.7 [2], 0.822 µM; on Nav 1.5, 2.01 µM.

For `N#Cc1cc(N2CCOc3cc(S(=O)(=O)Nc4nccs4)ccc32)ccc1F` [Example 175, 4-(3-Cyano-4-Fluorophenyl)-N-(Thiazol-2-Yl)-3,4-Dihydro-2H-Benzo[B][1,4]Oxazine-7-Sulfonamide 2,2,2-Trifluoroacetate], the results for the IC50 against Nav 1.7 [1], against Nav 1.7 [2] and on Nav 1.5 were 0.202 µM, 1.39 µM and 5.08 µM, respectively.

On to `N#Cc1cc(F)ccc1N1CCOc2cc(S(=O)(=O)Nc3nccs3)ccc21` [Example 177, 4-(2-cyano-4-fluorophenyl)-N-(thiazol-2-yl)-3,4-dihydro-2H-benzo[b][1,4]oxazine-7-sulfonamide], for which the IC50 on Nav 1.7 [1] is 0.178 µM; on Nav 1.7 [2] it was 1.49 µM; at Nav 1.5, greater than 10 µM.

Take `Cc1ccc(Cl)cc1N1CCOc2cc(S(=O)(=O)Nc3nccs3)ccc21` [Example 178, 4-(5-Chloro-2-Methylphenyl)-N-(Thiazol-2-Yl)-3,4-Dihydro-2H-Benzo[B][1,4]Oxazine-7-Sulfonamide 2,2,2-Trifluoroacetate]: the IC50 on Nav 1.7 [1] is 0.129 µM; against Nav 1.7 [2], 0.678 µM; on Nav 1.5 it was 5.6 µM.

With `O=S(=O)(Nc1nccs1)c1ccc2c(c1)OCCN2c1ccccc1OC(F)F` [Example 179, 4-(2-(Difluoromethoxy)Phenyl)-N-(Thiazol-2-Yl)-3,4-Dihydro-2H-Benzo[B][1,4]Oxazine-7-Sulfonamide 2,2,2-Trifluoroacetate], the IC50 is 0.112 µM at Nav 1.7 [1], 0.75 µM against Nav 1.7 [2] and 5.64 µM on Nav 1.5.

Turning to `O=S(=O)(Nc1nccs1)c1ccc2c(c1)OCCN2c1cc(Cl)ccc1Cl` [Example 180, 4-(2,5-Dichlorophenyl)-N-(Thiazol-2-Yl)-3,4-Dihydro-2H-Benzo[B][1,4]Oxazine-7-Sulfonamide 2,2,2-Trifluoroacetate], the IC50 is 0.104 µM on Nav 1.7 [1], 0.85 µM at Nav 1.7 [2] and 6.94 µM at Nav 1.5.

In the case of `COc1cc(C#N)ccc1N1CCOc2cc(S(=O)(=O)Nc3nccs3)ccc21` [Example 181, 4-(4-Cyano-2-Methoxyphenyl)-N-(Thiazol-2-Yl)-3,4-Dihydro-2H-Benzo[B][1,4]Oxazine-7-Sulfonamide 2,2,2-Trifluoroacetate], the IC50 was 0.0075 µM against Nav 1.7 [1], 0.175 µM on Nav 1.7 [2] and greater than 10 µM against Nav 1.5.

Turning to `O=S(=O)(Nc1nccs1)c1ccc2c(c1)OCCN2c1ccc(C(F)(F)F)cn1` [Example 183, N-(Thiazol-2-Yl)-4-(5-(Trifluoromethyl)Pyridin-2-Yl)-3,4-Dihydro-2H-Benzo[B][1,4]Oxazine-7-Sulfonamide], the figures for the IC50 against Nav 1.7 [1], against Nav 1.7 [2] and at Nav 1.5 were 0.177 µM, 3.32 µM and greater than 10 µM, respectively.

As to `N#Cc1ccc(C(F)(F)F)cc1N1CCOc2cc(S(=O)(=O)Nc3nccs3)ccc21` [Example 184, 4-(2-Cyano-5-(Trifluoromethyl)Phenyl)-N-(Thiazol-2-Yl)-3,4-Dihydro-2H-Benzo[B][1,4]Oxazine-7-Sulfonamide], the IC50 on Nav 1.7 [1] amounted to 0.186 µM; at Nav 1.7 [2], 0.392 µM; at Nav 1.5, 3.17 µM.

As to `O=S(=O)(Nc1nccs1)c1ccc2c(c1)OCCN2c1cccc(OC(F)(F)F)c1` [Example 185, N-(Thiazol-2-Yl)-4-(3-(Trifluoromethoxy)Phenyl)-3,4-Dihydro-2H-Benzo[B][1,4]Oxazine-7-Sulfonamide], the IC50 on Nav 1.7 [1] is 0.335 µM; at Nav 1.7 [2] it was 2.62 µM; at Nav 1.5, 7.62 µM.

On to `COc1cc(Cl)ccc1N1CCOc2cc(S(=O)(=O)Nc3nccs3)ccc21` [Example 186, 4-(4-Chloro-2-Methoxyphenyl)-N-(Thiazol-2-Yl)-3,4-Dihydro-2H-Benzo[B][1,4]Oxazine-7-Sulfonamide], for which the IC50 on Nav 1.7 [1] is 0.0115 µM; at Nav 1.7 [2], 0.0676 µM; against Nav 1.5, 7.72 µM.

Consider `N#Cc1c(F)cccc1N1CCOc2cc(S(=O)(=O)Nc3nccs3)ccc21` [Example 187, 4-(2-Cyano-3-Fluorophenyl)-N-(Thiazol-2-Yl)-3,4-Dihydro-2H-Benzo[B][1,4]Oxazine-7-Sulfonamide], for which the IC50 against Nav 1.7 [1] was 0.417 µM; against Nav 1.7 [2] it was 7.73 µM; against Nav 1.5, greater than 10 µM.

With `COc1ccc(C#N)c(N2CCOc3cc(S(=O)(=O)Nc4nccs4)ccc32)c1` [Example 189, 4-(2-Cyano-5-Methoxyphenyl)-N-(Thiazol-2-Yl)-3,4-Dihydro-2H-Benzo[B][1,4]Oxazine-7-Sulfonamide], the results for the half-inhibitory concentration (IC50) against Nav 1.7 [1], against Nav 1.7 [2] and on Nav 1.5 were 0.385 µM, 3.1 µM and 7.59 µM, respectively.

With `COc1ccncc1N1CCOc2cc(S(=O)(=O)Nc3nccs3)ccc21` [Example 190, 4-(4-Methoxypyridin-3-Yl)-N-(Thiazol-2-Yl)-3,4-Dihydro-2H-Benzo[B][1,4]Oxazine-7-Sulfonamide], the figures for the IC50 at Nav 1.7 [1], at Nav 1.7 [2] and against Nav 1.5 were 0.309 µM, 5.17 µM and greater than 10 µM, respectively.

For the compound `N#Cc1ccc(N2CCOc3cc(S(=O)(=O)Nc4nccs4)ccc32)c(Cl)c1` [Example 191, 4-(2-Chloro-4-Cyanophenyl)-N-(Thiazol-2-Yl)-3,4-Dihydro-2H-Benzo[B][1,4]Oxazine-7-Sulfonamide], the values for the IC50 at Nav 1.7 [1], against Nav 1.7 [2] and at Nav 1.5 were 0.14 µM, 0.976 µM and greater than 10 µM, respectively.

For the compound `N#Cc1ccc(Cl)cc1N1CCOc2cc(S(=O)(=O)Nc3nccs3)ccc21` [Example 192, 4-(5-Chloro-2-Cyanophenyl)-N-(Thiazol-2-Yl)-3,4-Dihydro-2H-Benzo[B][1,4]Oxazine-7-Sulfonamide], the IC50 against Nav 1.7 [1] amounted to 0.0525 µM; against Nav 1.7 [2], 0.769 µM; on Nav 1.5, 1.61 µM.

For `O=S(=O)(Nc1nccs1)c1ccc2c(c1)OCCN2c1ccc(Cl)cc1OC(F)F` [Example 193, 4-(4-Chloro-2-(Difluoromethoxy)Phenyl)-N-(Thiazol-2-Yl)-3,4-Dihydro-2H-Benzo[B][1,4]Oxazine-7-Sulfonamide 2,2,2-Trifluoroacetate], the IC50 amounted to 0.103 µM against Nav 1.7 [1], 0.684 µM against Nav 1.7 [2] and 1.56 µM at Nav 1.5.
